Experimental data as given in ChEMBL document CHEMBL6083248, “Synthesis, pharmacological evaluation, and modeling of novel quaternary ammonium salts derived from β-carboline containing an imidazole moiety as angiogenesis inhibitors” (Bioorg Med Chem, 2024).
pIC50: −log10 of the molar value.

Key:
A549 = assay: Antiproliferative activity against human A549 cells assessed as inhibition of cell growth incubated for 48 hrs by MTT assay; type: functional, cell-based; conditions: A549, 48 h
BGC-823 = assay: Antiproliferative activity against human BGC-823 cells assessed as inhibition of cell growth incubated for 48 hrs by MTT assay; type: functional, cell-based; conditions: BGC-823, 48 h
Bel-7402 = assay: Antiproliferative activity against human Bel-7402 cells assessed as inhibition of cell growth incubated for 48 hrs by MTT assay; type: functional, cell-based; conditions: Bel-7402, 48 h
CT26 = assay: Antiproliferative activity against mouse CT26 cells assessed as inhibition of cell growth incubated for 48 hrs by MTT assay; type: functional, cell-based; conditions: CT26, 48 h
MCF7 = assay: Antiproliferative activity against human MCF7 cells assessed as inhibition of cell growth incubated for 48 hrs by MTT assay; type: functional, cell-based; conditions: MCF7, 48 h
Chorioallantoic membrane = assay: Antiangiogenic activity in chicken embryo chorioallantoic membrane assessed as decrease in microvessel density incubated for 48 hrs by microscopic analysis; type: functional, tissue-based; conditions: Gallus gallus
[1] = target: Vascular endothelial growth factor receptor 2 (Mus musculus) (UniProt P35918); assay: Inhibition of VEGFR2 autophosphorylation in mouse BEND3 cells incubated for 2 hrs by Western blotting analysis; type: cell-based
Vascular endothelial growth factor receptor 2 (Mus musculus), sequence (P35918 whole entry): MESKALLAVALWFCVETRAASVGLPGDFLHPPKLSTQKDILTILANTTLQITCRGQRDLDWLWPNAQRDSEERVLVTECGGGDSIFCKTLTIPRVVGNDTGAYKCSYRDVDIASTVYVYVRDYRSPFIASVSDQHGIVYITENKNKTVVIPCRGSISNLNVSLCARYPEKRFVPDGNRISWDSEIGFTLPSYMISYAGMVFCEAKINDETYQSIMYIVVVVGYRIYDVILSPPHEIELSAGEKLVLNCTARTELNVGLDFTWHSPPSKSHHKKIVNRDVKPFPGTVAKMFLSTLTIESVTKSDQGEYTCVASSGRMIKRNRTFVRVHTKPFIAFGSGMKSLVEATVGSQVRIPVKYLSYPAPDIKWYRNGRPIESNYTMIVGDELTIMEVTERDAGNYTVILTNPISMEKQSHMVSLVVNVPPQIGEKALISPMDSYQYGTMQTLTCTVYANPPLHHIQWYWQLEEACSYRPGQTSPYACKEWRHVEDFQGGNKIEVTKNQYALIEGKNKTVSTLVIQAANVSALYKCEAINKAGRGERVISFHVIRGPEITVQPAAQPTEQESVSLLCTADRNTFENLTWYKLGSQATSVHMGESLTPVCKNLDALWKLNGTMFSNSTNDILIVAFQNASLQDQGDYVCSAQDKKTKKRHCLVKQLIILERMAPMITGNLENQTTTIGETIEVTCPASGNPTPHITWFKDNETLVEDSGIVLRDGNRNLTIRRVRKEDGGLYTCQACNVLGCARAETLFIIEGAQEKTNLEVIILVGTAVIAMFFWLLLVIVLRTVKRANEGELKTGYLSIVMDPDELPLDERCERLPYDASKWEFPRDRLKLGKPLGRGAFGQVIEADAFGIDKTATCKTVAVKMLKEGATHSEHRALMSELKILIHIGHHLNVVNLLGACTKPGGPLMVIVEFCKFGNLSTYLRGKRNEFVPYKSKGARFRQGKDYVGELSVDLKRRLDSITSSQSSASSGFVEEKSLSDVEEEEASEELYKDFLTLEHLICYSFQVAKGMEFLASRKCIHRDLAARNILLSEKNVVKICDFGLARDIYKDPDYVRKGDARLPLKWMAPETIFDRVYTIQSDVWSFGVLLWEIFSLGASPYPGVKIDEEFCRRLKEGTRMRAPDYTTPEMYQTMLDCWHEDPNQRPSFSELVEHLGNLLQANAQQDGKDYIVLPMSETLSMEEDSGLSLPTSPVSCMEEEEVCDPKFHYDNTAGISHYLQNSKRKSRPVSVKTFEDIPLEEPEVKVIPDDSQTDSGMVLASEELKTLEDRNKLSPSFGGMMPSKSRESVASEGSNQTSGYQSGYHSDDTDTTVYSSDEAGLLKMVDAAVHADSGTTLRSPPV

| pIC50 (A549) | pIC50 (BGC-823) | pIC50 (Bel-7402) | pIC50 (CT26) | pIC50 (MCF7) | inhibition [1] | Structure (SMILES) | Activity (Chorioallantoic membrane) |
| --- | --- | --- | --- | --- | --- | --- | --- |
| 4.65 | 4.90 | 4.97 | 5.89 | 4.77 |  | Clc1cccc(Cn2c3ccccc3c3cc4cn(Cc5ccccc5)c[n+]4cc32)c1 |  |
| 4.63 | 5.96 | 4.79 | 4.80 | 5.04 |  | FC(F)(F)c1ccc(-n2cc3cc4c5ccccc5n(Cc5ccccc5)c4c[n+]3c2)cc1 |  |
| 4.84 | 5.07 | 5.49 | 5.96 | 4.81 |  | CCCCn1c2ccccc2c2cc3cn(-c4ccccc4)c[n+]3cc21 |  |
| 5.62 | 5.89 | 5.11 | 5.01 | 4.92 | Dose-dependent-effect | CCCCn1c2ccccc2c2cc3cn(-c4ccc(C(F)(F)F)cc4)c[n+]3cc21 | Dose-dependent-effect |
| 4.68 | 4.69 | 5.46 | 5.11 | 4.94 |  | FC(F)(F)c1cccc(-n2cc3cc4c5ccccc5n(Cc5ccccc5)c4c[n+]3c2)c1 |  |
| 4.63 | 4.85 | 4.80 | 5.37 | 4.90 |  | Fc1ccc(Cn2c3ccccc3c3cc4cn(-c5ccccc5)c[n+]4cc32)cc1 |  |
| 5.07 | 4.96 | 5.26 | 4.76 | 5.85 |  | FC(F)(F)c1cccc(-n2cc3cc4c5ccccc5n(Cc5cccc(Cl)c5)c4c[n+]3c2)c1 |  |
| 4.67 | 5.47 | 4.88 | 4.80 | 5.60 |  | c1ccc(Cn2cc3cc4c5ccccc5n(Cc5ccccc5)c4c[n+]3c2)cc1 |  |
| 5.00 | 5.46 | 5.39 | 4.64 | 4.80 |  | COc1ccc(Cn2c3ccccc3c3cc4cn(-c5ccc(C(F)(F)F)cc5)c[n+]4cc32)cc1 |  |
| 4.70 | 5.14 | 4.65 | 4.94 | 5.29 |  | COc1ccc(Cn2c3ccccc3c3cc4cn(-c5ccc(N(C)C)cc5)c[n+]4cc32)cc1 |  |
| 5.12 | 5.11 | 4.79 | 4.71 | 4.85 |  | CN(C)c1ccc(-n2cc3cc4c5ccccc5n(Cc5ccccc5)c4c[n+]3c2)cc1 |  |
| 5.17 | 5.39 | 4.94 | 5.14 | 5.26 |  | c1ccc(Cn2c3ccccc3c3cc4cn(-c5ccccc5)c[n+]4cc32)cc1 |  |
| 4.91 | 5.46 | 4.72 | 4.79 | 5.04 |  | Cn1c2ccccc2c2cc3cn(-c4cc(F)cc(F)c4)c[n+]3cc21 |  |
| 4.91 | 4.92 | 5.09 | 4.68 | 5.10 |  | CN(C)c1ccc(-n2cc3cc4c5ccccc5n(Cc5cccc(Cl)c5)c4c[n+]3c2)cc1 |  |
| 4.93 | 5.55 | 5.08 | 5.05 | 5.34 |  | CN(C)CCn1cc2cc3c4ccccc4n(Cc4ccccc4)c3c[n+]2c1 |  |
| 4.62 | 4.76 | 5.28 | 5.32 | 5.48 |  | FC(F)(F)c1ccc(-n2cc3cc4c5ccccc5n(CCCc5ccccc5)c4c[n+]3c2)cc1 |  |
| 4.84 | 4.72 | 4.77 | 4.88 | 5.06 |  | COc1ccc(Cn2c3ccccc3c3cc4cn(-c5ccccc5)c[n+]4cc32)cc1 |  |
| 4.92 | 5.12 | 4.67 | 5.16 | 5.31 |  | FC(F)(F)c1ccc(-n2cc3cc4c5ccccc5n(Cc5cccc(Cl)c5)c4c[n+]3c2)cc1 |  |
| 4.81 | 4.72 | 4.65 | 4.63 | 5.42 |  | CN(C)c1ccc(-n2cc3cc4c5ccccc5n(C)c4c[n+]3c2)cc1 |  |
| 5.11 | 4.90 | 4.74 | 4.74 | 4.70 |  | Cn1c2ccccc2c2cc3cn(-c4ccccc4)c[n+]3cc21 |  |
| 4.97 | 4.88 | 5.08 | 5.42 | 5.82 |  | CN(C)CCn1cc2cc3c4ccccc4n(CCCc4ccccc4)c3c[n+]2c1 |  |
| 4.66 | 4.75 | 4.96 | 5.09 | 4.70 |  | Cn1c2ccccc2c2cc3cn(-c4cccc(C(F)(F)F)c4)c[n+]3cc21 |  |
| 5.08 | 4.84 | 5.24 | 5.31 | 4.90 |  | CCCCn1c2ccccc2c2cc3cn(-c4ccc5ccccc5c4)c[n+]3cc21 |  |
| 4.97 | 4.98 | 5.74 | 5.24 | 4.99 |  | Clc1cccc(Cn2c3ccccc3c3cc4cn(-c5ccccc5)c[n+]4cc32)c1 |  |
